Data on eight molecules can be found in patent publication US7829529B2, “Use of factor VIIa or a tissue factor antagonist for regulating gene expression and cell migration or chemotaxis” (Novo Nordisk Health Care A/G, priority 1999, dated 2010).

Entries after “also recorded” stand apart in the source; their conditions may differ. Starred links: 1 amine or outer side, 2 acyl side, 3 side chain; linkers in the order of their positions; H or OH if unused. Positions of bridges follow the written chain, without caps; N, C: chain ends. Non-standard residues stand in square brackets, D forms with d. Residues, ends and D or L forms follow the SMILES beside them. Chains are numbered I, II in the order given. Actinocin(9to1) = Cc1c2oc3c(C)ccc(C(=O)[*:1])c3nc-2c(C(=O)[*:2])c(N)c1=O; NMeV = CN[C@H](C(=O)O)C(C)C; Sar = CNCC(=O)O

Test [1] deals with Human foreskin fibroblasts AG1523. Kind of test: Chemotaxis assay, leading front technique in modified Boyden chamber, towards PDGF-BB. The format is cell-based. The note with it: for effect on FVIIa/TF-mediated chemotactic response to PDGF-BB: 30 min pretreatment; for effect on enhanced migration response (hyperchemotaxis) transduced by FVIIa/TF: TAP 0.2-10 μM, Hirudin 5 U/ml; for effect on migration of fibroblasts in response to PDGF without FVIIa: no FVIIa present. The procedure: Fibroblasts expressing active TF (FIG. 1A and FIG. 1B) were incubated with 100 nM of FVIIa and seeded in the upper part of the modified Boyden chamber; while media containing 10% FBS and PDGF-BB at different concentrations were added below the 150 μm micropore filter. The migration of the cells under conditions where medium containing 10% FBS without PDGF-BB was added below the filter was used as a measure of random migration, and calculated as 100% migration. A significant migration response was recorded at a concentration of 0.01 ng/ml PDGF-BB in cells stimulated by FVIIa compared to 1 ng/ml PDGF-BB for cells not ligated with FVIIa, i.e. a 100-fold difference in concentration (FIG. 2). At 0.01-0.1 ng/ml PDGF-BB the migration response to FVIIa increased dose dependently, starting at 25 nM and with a maximal effect at 50-100 nM FVIIa (FIG. 3A-D). […] To test whether the proteolytically active FVIIa was mandatory for the hyperchemotactic response to PDGF-BB, fibroblasts were also incubated with 100 nM FFR-FVIIa and assayed in the Boyden chamber in the same way (FIG. 2).
An irrelevant monoclonal IgG antibody did neither prevent hyperchemotaxis induced by FVIIa nor the inhibition of the migration response induced by FFR-FVIIa (data not shown).
Chemotaxis assay. The migration response of fibroblasts was assayed by means of the leading front technique in a modified Boyden chamber, as previously described (Siegbahn, A., Hanimacher, A., Westermark, B., Heldin, C-H. Differential effects of the various isoforms of platelet-derived growth factor on chemotaxis of fibroblasts, monocytes, and granulocytes. J. Clin. Invest. 85, 916-920 (1990) and Nistér, M., Hammacher, A., Mellström, K., Siegbahn, A., Rönnstrand, L., Westermark, B., Heldin, C-H. A glioma-derived PDGF A chain homodimer has different functional activities from a PDGF AB heterodimer purified from human platelets. Cell 52, 791-799 (1988)). Micropore filters (pore size 8 μm) were coated with a solution of type-1 collagen at room temperature over night. The filters were air dried for 30 minutes immediately before use. Human foreskin fibroblasts AG1523, were grown to confluence in Eagle's MEM supplemented with 10% FBS. The cells were detached by trypsinization (2.5 mg/ml for 10 minutes at 37° C.) and suspended in Eagle's MEM with 10% FBS. The fibroblasts were incubated for 10 minutes with or without FVIIa or FFR-FVIIa before assay. One hundred microliters of the cell suspension (2×10^5 cells/ml) was added above the filter of the Boyden chamber. PDGF-BB was diluted in assay media (Eagle's MEM with 10% FBS) and added below the filter in the chamber. The cells were incubated for 6 hours at 37° C. in a humidified chamber containing 95% air/5% CO2. FVIIa or FFR-FVIIa were present during the entire experiment. The filters were then removed, fixed in ethanol, stained with Mayer's Hemalun, and mounted. Migration was measured as the distance of the two furthest migrating fibroblast nuclei of one high-power field (12.5×24) in focus. The migration distance in each filter was calculated as the mean of the readings of at least three different parts of the filter. Experiments were performed with two to four separate filters for each concentration of chemoattractant. For each set of experiments, the migration of fibroblasts toward the assay media served as control.
In cases when anti-TF monoclonal antibodies or inhibitors to coagulation factors, TAP and Hirudin, were used, cells were preincubated for 10 minutes with these agents, then with or without FVIIa or FFR-FVIIa before the chemotaxis assay was performed. Antibodies, TAP or Hirudin were also present during the entire chemotaxis experiment. In experiments where the effects on the migration response of different inhibitors, LY294002, U73122 or U73343, were tested, cells were preincubated for 30 minutes with the inhibitors at indicated concentrations, and the inhibitors were also present throughout the experiments.

Test [2] deals with Cyr61 mRNA in WI-38 cells. Description: Northern blot analysis of Cyr61 expression. The format is cell-based, human. The note with it: for effect on VIIa-induced expression of Cyr61: 30 min preincubation, then VIIa 5 μg/ml 45 min, TAP 200 nM, actinomycin D and cycloheximide 10 μg/ml. The procedure:
Northern Blot Analysis. Total RNA was prepared using TRIZOL reagent from quiescent monolayer of WI-38 cells that were exposed to VIIa and other materials as described in Results. Northern blot analysis was carried out using standard procedure. Briefly, 10 μg of total RNA was size fractionated by gel electrophoresis in 1% agarose/6% formaldehyde gels and transferred onto the nitrocellulose membrane by a capillary blot method. Northern blots were prehybridized at 42° C. with a solution containing 50% formamide, 5×SSC, 50 mM Tris.HCl, pH 7.5, 0.1% sodium pyrophosphate, 1% SDS, 1% polyvinylpyrrolidone, 1% Ficoll, 25 mM EDTA, 100 μg/ml denatured salmon sperm DNA and 1% BSA and hybridized with ^32P-labeled Cyr61 cDNA probe (106 cpm/ml). The hybridized membranes were exposed to either Dupont NEF or Fuji RX X-ray film. For quantification purposes, the membranes were exposed to phosphor screen for 1 to 4 h, and the exposed screens were analyzed in a Phosphorlmger (Molecular Dynamics) using “Image-quant” software. To obtain mean values, the units (counts) obtained from different experiments were normalized to an internal control (counts present in control-treated sample).
Confirmation of differential expression of Cyr61. To validate the data obtained in microarray, we have patiented the RNA samples from the control and VIIa-treated cells (the same RNA samples that have been used to prepare poly (A) RNA for probe generation in the microarray) to Northern blot analysis and probed with radiolabeled Cyr61 cDNA. […] However, the intensity of hybridization signal was much higher in RNA isolated from VIIa-treated cells (FIG. 11).
Kinetics of Vila-induced expression of Cyr61. To determine the kinetics of Cyr61 expression, quiescent fibroblasts were treated for varying time periods with 5 μg/ml VIIa. Total RNA was extracted and patiented to Northern blot analysis. […] The expression was peaked at about 45 min and thereafter declined to the base level in 2 to 3 h. Since it had been reported that expression of Cyr61 in mouse fibroblasts after stimulation with serum and growth factor was sustained for several hours (up to 8 to 10 h) before repression occurs, we have examined the effect of serum and PDGF on kinetics of Cyr61 expression in quiescent human fibroblasts, WI-38. […] Similar results obtained with serum-induced expression of Cyr61 (data not shown).
Factor VIIa-dose dependent induced expression of Cyr61. To determine dose-dependency of VIIa, quiescent fibroblasts were treated with varying doses FVIIa (0.1 to 5 μg/ml) for 45 min and then total RNA samples from the cells were patiented to Northern blot analysis.
Factor VIIa-catalytic activity is required for Cyr61 induction. To test whether VIIa catalytic activity is required for the induction of Cyr61, WI-38 cells were treated with VIIa and active-site inactivated FVIIa (FVIIai) for 45 min and the expression of Cyr61 was evaluated by Northern blot analysis. […] It is unlikely that VIIa-induced expression of Cyr61 in our experiments was the result of generation of down-stream coagulation factors, FXa and thrombin.
Involvement of transcriptional mechanism for the induction of Cyr61 mMRNA steady-state levels by VIIa. To investigate whether transcription is involved in VIIa-mediated increase in Cyr61 mRNA steady-state levels, quiescent WI-38 cells were incubated with actinomycin-D (10 μg/ml) for 30 min before the addition of VIIa for 45 min. […] This finding indicates a transcriptional mechanism for induction of Cyr61.
To investigate whether de novo protein synthesis is required for the induction of Cyr61 nRNA by VIIa, WI-38 cells were pretreated with the protein synthesis inhibitor cycloheximide before the cells were exposed to VIIa for 45 min.

For test [3], the system named is PLC-γ1 in AG1518 fibroblasts. Description: Assay for agonist-induced PLC-γ1 tyrosine phosphorylation. The format is cell-based, human. The note with it: 100 nM FVIIa or FFR-FVIIa one hour; PDGF-BB 2, 10 or 100 ng/ml 5 minutes. The procedure:
In order to determine whether the PLC-γ1 isoform, which is activated by certain tyrosine kinase receptors, was responsible for the increased PLC activity induced by FVIIa/TF, tyrosine phosphorylation of PLC-γ1 was studied. Fibroblasts were incubated in the absence or presence of 100 nM FVIIa or FFR-FVIIa for one hour, followed by the stimulation with 0, 2, 10 or 100 ng/ml PDGF-BB. After 5 minutes of incubation, the cells were lysed and PLC-γ1 was immunoprecipitated, separated by SDS-PAGE and immunoblotted with antiphosphotyrosine antibodies. […] Thus, other PLC isoforms than PLC-γ1 are responsible for the increased PLC activity after FVIIa stimulation.
Assay for agonist-induced PLC-γ1 phosphorylation. Semi-confluent cultures of AG1518 were serum starved overnight (approx. 20 hours) in medium containing 0.1% FBS, and then incubated in the absence or presence of 100 nM FVIIa or FFR-FVIIa for one hour followed by incubation with 0, 2, 10 or 100 ng/ml PDGF-BB for 5 minutes at 37° C. […]

Setting [4] is: 100 nM FVIIa, 0.1 ng/ml PDGF-BB.

Regarding `COc1ccc2c(c1)CC[C@@H]1[C@@H]2CC[C@]2(C)[C@@H](NCCCCCCN3C(=O)C=CC3=O)CC[C@@H]12` [U73122], in test [1] (setting [4]), the “concentration giving total inhibition of the hyperchemotactic response” value was determined as 1 µM and the “effect on FVIIa/TF-mediated chemotactic response to PDGF-BB” value is given as “inhibited the hyperchemotacic response to 0.1 ng/ml PDGF-BB in a dose-dependent way”.

With `COc1ccc2c(c1)CC[C@@H]1[C@@H]2CC[C@]2(C)[C@@H](NCCCCCCN3C(=O)CCC3=O)CC[C@@H]12` [U73343], the “effect on FVIIa/TF-mediated chemotactic response to PDGF-BB” value in test [1] (setting [4]) is “No effect on chemotaxis”.

Turning to `Cc1c2oc3c(C)ccc(C(=O)N[C@@H]4C(=O)N[C@H](C(C)C)C(=O)N5CCC[C@H]5C(=O)N(C)CC(=O)N(C)[C@@H](C(C)C)C(=O)O[C@@H]4C)c3nc-2c(C(=O)N[C@@H]2C(=O)N[C@H](C(C)C)C(=O)N3CCC[C@H]3C(=O)N(C)CC(=O)N(C)[C@@H](C(C)C)C(=O)O[C@@H]2C)c(N)c1=O` [actinomycin-D] (I: T[dV]P[Sar][NMeV] / II: T[dV]P[Sar][NMeV]; ester I:1-I:C, II:1-II:C; linker I:N-II:N via Actinocin(9to1)), the “effect on VIIa-induced expression of Cyr61” value (shortened to “effect … of Cyr61”) in test [2] is on record as “inhibited the stimulator effect of VIIa”.

As to `C[C@@H]1C[C@@H]([C@H](O)CC2CC(=O)NC(=O)C2)C(=O)[C@@H](C)C1` [cycloheximide], the “effect … of Cyr61” value in test [2] is listed as “not blocked; also recorded: markedly increased the VIIa-induced Cyr61 mRNA steady-state levels”.

Turning to Hirudin, in test [1] (100 nM FVIIa), the “effect on enhanced migration response (hyperchemotaxis) transduced by FVIIa/TF” value is “Neither addition of 5 U/ml Hirudin, a specific thrombin inhibitor, had any effect”. Moreover, in test [1], the “effect on migration of fibroblasts in response to PDGF without FVIIa” value is listed as “did not influence”. Besides, the “effect … of Cyr61” value in test [2] is “failed to abolish”.

In the case of “TAP: Recombinant Tick anticoagulant peptide, specifically blocks the active site of FXa (YNRLCIKPRDWIDECDSNEGGERAYFRNGKGGCDSFWICPEDHTGADYYSSYRDCFNACI; UniProt P17726 1-60, looked up)”, in test [1] (100 nM FVIIa), the “effect on enhanced migration response (hyperchemotaxis) transduced by FVIIa/TF” value is “not blocked”. The “effect on migration of fibroblasts in response to PDGF without FVIIa” value in test [1] is “did not influence”. In test [2], the “effect … of Cyr61” value is listed as “failed to abolish”.

Turning to thrombin, the “induction of Cyr61 expression (data not shown)” value in test [2] (conditions not given) is given as “could also induce the expression of Cyr61”.

B1: PDGF-BB: platelet-derived growth factor BB, chemotactic factor for human fibroblasts (protein, UniProt P01127 82-190, looked up)
Platelet-derived growth …: SLGSLTIAEPAMIAECKTRTEVFEISRRLIDRTNANFLVWPPCVEVQRCSGCCNNRNVQCRPTQVQLRPVQVRKIEIVRKKPIFKKATVTLEDHLACKCETVAAARPVT
Turning to B1, the “tyrosine phosphorylation of PLC-γ1, agent alone” value in test [3] is on record as “significant increase in tyrosine phosphorylation of PLC-γ1”. For the same molecule, in test [2] (PDGF-BB 10 ng/ml), the “kinetics of Cyr61 expression upon stimulation” value is “expressed only transiently” and the “time to full repression of Cyr61 after addition of stimuli” value is given as 2 h.
